Assay results published in publication PMC7822874, “Chemoprotective antimalarials identified through quantitative high-throughput screening of Plasmodium blood and liver stage parasites” (Scientific Reports, 2021).
Values joined by “and” are separate entries in the source; they are usually repeats but may differ in a detail not shown here. Equal entries are not always repeated. Where two headings read alike, the source gives them in different places.

How the values were obtained:
in vitro [1] = conditions: human, HepG2-A16-CD81EGFP cells, uninfected
[2] = system: Plasmodium falciparum Dd2 asexual blood stage parasites; test: microbe, parasite or virus in culture; parameters: species or system Plasmodium falciparum Dd2 in human erythrocytes; single determination (one 11-point concentration-response curve); conditions: Plasmodium falciparum, DD2, Erythrocyte, 72 h; read-out: AC50
[3] = system: luciferase-expressing P. berghei liver stage parasites in HepG2 cells; test: Inhibition of liver-stage development assay (ILSDA), Method 2 (WRAIR, 96-well); type: cell-based, Plasmodium berghei; conditions: for Max Resp (signal direction of the dose response): Method 2, Decrease = decreasing P. berghei viability with dose, Increase = increasing signal, Inactive = no dose response; for AC50: Plasmodium berghei, HepG2, Method 2
in vitro [4] = conditions: human, n = 1
HepG2-A16-CD81EGFP cells = conditions: average of 2 wells; for HepG2 viability signal, 3 uM, repeat 2: nominal 3 uM (10 mM stock), 4.5 uM for 15 mM, 3.6 uM for 12 mM, 6 uM for 20 mM stock; for HepG2 1uM growth rep1 / HepG2 1uM growth rep2: HepG2, 1 µM compound treatment (10 mM stocks); for HepG2 1uM growth rep1 / HepG2 3uM growth rep1: replicate 1, normalized; for HepG2 1uM growth rep2 / HepG2 3uM growth rep2: replicate 2, normalized; for HepG2 3uM growth rep1 / HepG2 3uM growth rep2: HepG2, 3 µM compound treatment (10 mM stocks)
[5] = system: P. berghei-ANKA-GFP-LucCON liver stage parasites in HepG2-A16-CD81EGFP cells; test: P. berghei liver stage Pb-Luc assay, Method 1 (UCSD, 1536-well); type: cell-based, Plasmodium berghei; conditions: for Max Resp (signal direction of the dose response): Decrease = decreasing P. berghei viability with dose, Increase = increasing signal, Inactive = no dose response; for activity at 1 µM / activity at 3 µM: 48 h
[6] = system: T1, Plasmodium falciparum Dd2-attB (parental line), asexual blood stages; test: microbe, parasite or virus in culture; parameters: replicate k of 3 (each line is one of three independent assays; the three lines of one compound and parasite line follow each other); conditions: n = 1; for Individual replicates / Log AC50 (M): 72 h; for AC50: Plasmodium falciparum, DD2, 72 h, read-out: Individual replicates / Log AC50 (converted)
T1 construct: Dd2-attB, the isogenic parental line
Outline: (§1)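 We compare activity in parasites carrying fumarate-using yeast DHODH with that in the parental line; mETC or parasite DHODH inhibitors are bypassed by this enzyme. Data come from three independent assays, analysed by two-sided Student's t-tests.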

[7] = system: T2, Plasmodium falciparum Dd2-attB-ScDHODH (transgenic line expressing yeast DHODH), asexual blood stages; test: organism not typed; parameters: replicate k of 3 (each line is one of three independent assays; the three lines of one compound and parasite line follow each other); conditions: 72 h, n = 1; for AC50: read-out: Individual replicates / Log AC50 (converted)
T2 construct: Dd2-attB-ScDHODH, the transgenic line that expresses yeast DHODH
Outline: as §1

[8] = Hill fit, 50% of maximum activity response, read-out: AC50
[9] = log10 of molar AC50 from Hill fit, read-out: Log AC50 (converted)
[10] = nominal 1 uM (10 mM stock), […] for 15 mM, 1.2 uM for 12 mM, 2 uM for 20 mM stock
[11] = Plasmodium berghei, nominal 1 uM (10 mM stock), […] for 15 mM, 1.2 uM for 12 mM, 2 uM for 20 mM stock, average of 2 wells, 1536-well plate, repeat 1, read-out: Pb-Luc signal, 1 uM, repeat 1
[12] = Plasmodium berghei, nominal 1 uM (10 mM stock), […] for 15 mM, 1.2 uM for 12 mM, 2 uM for 20 mM stock, average of 2 wells, 1536-well plate, repeat 2, read-out: Pb-Luc signal, 1 uM, repeat 2
[13] = Plasmodium berghei, nominal 1 uM (10 mM stock), […] for 15 mM, 1.2 uM for 12 mM, 2 uM for 20 mM stock, average of 2 wells, 1536-well plate, repeat 3, read-out: Pb-Luc signal, 1 uM, repeat 3
[14] = Plasmodium berghei, nominal 3 uM (10 mM stock), 4.5 uM for 15 mM, 3.6 uM for 12 mM, 6 uM for 20 mM stock, average of 2 wells, 1536-well plate, repeat 1, read-out: Pb-Luc signal, 3 uM, repeat 1
[15] = Plasmodium berghei, nominal 3 uM (10 mM stock), 4.5 uM for 15 mM, 3.6 uM for 12 mM, 6 uM for 20 mM stock, average of 2 wells, 1536-well plate, repeat 2, read-out: Pb-Luc signal, 3 uM, repeat 2
[16] = Plasmodium berghei, nominal 3 uM (10 mM stock), 4.5 uM for 15 mM, 3.6 uM for 12 mM, 6 uM for 20 mM stock, average of 2 wells, 1536-well plate, repeat 3, read-out: Pb-Luc signal, 3 uM, repeat 3
[17] = Plasmodium berghei, Method 1, Hill fit, 50% of maximum activity response, read-out: AC50
[18] = Plasmodium berghei, Method 1, log10 of molar AC50 from Hill fit, read-out: Log AC50 (converted)
[19] = Plasmodium berghei, P. berghei liver stage, 1 µM compound treatment (10 mM stocks), replicate 1, normalized, average of 2 wells on a 1536 well plate, read-out: PbLuc 1uM growth rep1
[20] = Plasmodium berghei, P. berghei liver stage, 1 µM compound treatment (10 mM stocks), replicate 2, normalized, average of 2 wells on a 1536 well plate, read-out: PbLuc 1uM growth rep2
[21] = Plasmodium berghei, P. berghei liver stage, 3 µM compound treatment (10 mM stocks), replicate 1, normalized, average of 2 wells on a 1536 well plate, read-out: PbLuc 3uM growth rep1
[22] = Plasmodium berghei, P. berghei liver stage, 3 µM compound treatment (10 mM stocks), replicate 2, normalized, average of 2 wells on a 1536 well plate, read-out: PbLuc 3uM growth rep2

O=C(NC(c1ccccc1)c1cc(Cl)c2cccnc2c1O)c1cccnc1 (centres unmarked) [MLS000573359-01]
viability at 48 h, 1 µM (in vitro [1]): 119%
viability at 48 h, 3 µM (in vitro [1]): 66%
AC50 [2]: 7.5 µM
Max Resp (signal direction of the dose response) [3]: Decrease
AC50 [3, 8]: 1.12 µM
AC50 [3, 9]: 1.12 µM
CC50 at 48 h (in vitro [4]; HepG2 cells): 13.7 µM

Cc1nn2c(c1-c1ccccc1-c1ccccc1)N(Cc1ccc(O)cc1)CCC2 [NCGC00420512-01]
viability at 48 h, 1 µM (in vitro [1]): 96.5%
viability at 48 h, 3 µM (in vitro [1]): 112%
HepG2 viability signal, 1 uM, repeat 2 (HepG2-A16-CD81EGFP cells; [10]): 99.38%
HepG2 viability signal, 3 uM, repeat 2 (HepG2-A16-CD81EGFP cells): 110.31%
AC50 [2]: 0.485 µM
Max Resp (signal direction of the dose response) ([5]; Method 1): Decrease
activity at 1 µM [5, 11]: 76.6%
activity at 1 µM [5, 12]: 69.5%
activity at 1 µM [5, 13]: 95.1%
activity at 3 µM [5, 14]: 15.6%
activity at 3 µM [5, 15]: 15.8%
activity at 3 µM [5, 16]: 40.5%
AC50 [5, 17]: 1.58 µM
AC50 [5, 18]: 1.58 µM
CC50 at 48 h (in vitro [4]; HepG2 cells): 28 µM

CN(C)C1CCN(Cc2cc(COCc3ccccc3)c3cccnc3c2O)C1 (centres unmarked) [NCGC00183372-01]
Individual replicates / Log AC50 (M) [6]: -5.2486 Log AC50 (M) and -5.1486 Log AC50 (M)
AC50 [6]: 5.03 µM
Individual replicates / Log AC50 (M) [7]: -5.2986 Log AC50 (M) and -5.1986 Log AC50 (M) and -4.7986 Log AC50 (M)
CC50 at 48 h (in vitro [4]; HepG2 cells): 21.7 µM

COc1ccc(CN[C@@H]2C=C[C@@H](c3c(C)nn(-c4ccc(OC)cc4)c3C)C2)cc1 [NCGC00401425-01]
viability at 48 h, 1 µM (in vitro [1]): 100%
viability at 48 h, 3 µM (in vitro [1]): 99.3%
HepG2 viability signal, 1 uM, repeat 2 (HepG2-A16-CD81EGFP cells; [10]): 96.20%
HepG2 viability signal, 3 uM, repeat 2 (HepG2-A16-CD81EGFP cells): 99.98%
AC50 [2]: 4.85 µM
activity at 1 µM [5, 11]: 79.1%
activity at 1 µM [5, 12]: 135%
activity at 1 µM [5, 13]: 59%
activity at 3 µM [5, 14]: 56.4%
activity at 3 µM [5, 15]: 76.7%
activity at 3 µM [5, 16]: 51.8%
CC50 at 48 h (in vitro [4]; HepG2 cells): 39.6 µM

COc1ccc(C2C=C(c3ccc(Cl)cc3)Nc3nc(-c4ccc(Cl)cc4)nn32)cc1 (centres unmarked) [NCGC00100531-01]
HepG2 viability signal, 1 uM, repeat 1 (HepG2-A16-CD81EGFP cells; nominal 1 uM (10 mM stock), […] for 15 mM, 1.2 uM for 12 mM, 2 uM for 20 mM stock, repeat 1): 97.18%
HepG2 viability signal, 1 uM, repeat 2 (HepG2-A16-CD81EGFP cells; [10]): 96.07%
HepG2 viability signal, 3 uM, repeat 2 (HepG2-A16-CD81EGFP cells): 80.71%
AC50 [2]: 0.237 µM
Max Resp (signal direction of the dose response) ([5]; Method 1): Inactive
activity at 1 µM [5, 11]: 88.1%
activity at 1 µM [5, 12]: 81%
activity at 1 µM [5, 13]: 70.8%
activity at 3 µM [5, 14]: 5.3%
activity at 3 µM [5, 15]: 3.16%
activity at 3 µM [5, 16]: 51.4%
CC50 at 48 h (in vitro [4]; hepg2): 15.3 µM

Oc1c(CN2CCCC2)cc(COCc2ccccc2)c2cccnc12 [NCGC00183371-01]
Individual replicates / Log AC50 (M) [6]: -5.2986 Log AC50 (M) and -5.1986 Log AC50 (M)
AC50 [6]: 3.99 µM
AC50 [2]: 6.68 µM
Individual replicates / Log AC50 (M) [7]: -4.7986 Log AC50 (M) and -5.1486 Log AC50 (M)
CC50 at 48 h (in vitro [4]; HepG2 cells): 8.62 µM

O=C(N/N=C(/c1ccccc1)c1cccnc1)c1cccc(F)c1 [MLS001224623-01]
HepG2 1uM growth rep1 (HepG2-A16-CD81EGFP cells): 68%
HepG2 1uM growth rep2 (HepG2-A16-CD81EGFP cells): 59%
HepG2 3uM growth rep1 (HepG2-A16-CD81EGFP cells): 30%
HepG2 3uM growth rep2 (HepG2-A16-CD81EGFP cells): 34%
AC50 [2]: 4.22 µM
activity at 1 µM [5, 19]: 10%
activity at 1 µM [5, 20]: 9%
activity at 3 µM [5, 21]: 6.61%
activity at 3 µM [5, 22]: 8%
CC50 at 48 h (in vitro [4]; HepG2 cells): 12.2 µM

Oc1c(CN2CCCCC2)cc(COCc2ccccc2)c2cccnc12 [NCGC00052274-02]
Individual replicates / Log AC50 (M) [6]: -5.4486 Log AC50 (M) and -5.3486 Log AC50 (M)
AC50 [6]: 5.64 µM
AC50 [2]: 8.41 µM
Individual replicates / Log AC50 (M) [7]: -5.4986 Log AC50 (M)
AC50 [7]: 5.03 µM
CC50 at 48 h (in vitro [4]; HepG2 cells): 6.85 µM

Oc1c(CNc2ccccc2)cc(COCc2ccccc2)c2cccnc12 [NCGC00183370-01]
Individual replicates / Log AC50 (M) [6]: -5.0486 Log AC50 (M)
AC50 [6]: 11.3 µM
Individual replicates / Log AC50 (M) [7]: -4.7986 Log AC50 (M)
AC50 [7]: 14.2 µM
CC50 at 48 h (in vitro [4]; HepG2 cells): 21.7 µM

O=C(Nc1ncccc1O)c1ccc(NS(=O)(=O)c2ccc3[nH]c(=O)[nH]c3c2)cc1 [MLS001138628-01]
HepG2 1uM growth rep1 (HepG2-A16-CD81EGFP cells): 110%
HepG2 1uM growth rep2 (HepG2-A16-CD81EGFP cells): 100%
HepG2 3uM growth rep1 (HepG2-A16-CD81EGFP cells): 89%
HepG2 3uM growth rep2 (HepG2-A16-CD81EGFP cells): 93%
AC50 [2]: 0.422 µM
activity at 1 µM [5, 19]: 61%
activity at 1 µM [5, 20]: 57%
activity at 3 µM [5, 21]: 21%
activity at 3 µM [5, 22]: 25%
CC50 at 48 h (in vitro [4]; HepG2 cells): 21.7 µM

Oc1c(C(Nc2nccs2)c2ccc(C(F)(F)F)cc2)ccc2cccnc12 (centres unmarked) [MLS000774842-01]
AC50 [2]: 5.31 µM
Max Resp (signal direction of the dose response) [3]: Decrease
AC50 [3, 8]: 0.282 µM
AC50 [3, 9]: 0.282 µM
CC50 at 48 h (in vitro [4]; HepG2 cells): 15.3 µM

O=C(Nc1ccc(Br)cc1)c1ccc(F)c([S+](=O)([O-])NC2CCCCCC2)c1 [NCGC00139407-01]
AC50 [2]: 9.44 µM
Max Resp (signal direction of the dose response) [3]: Decrease
AC50 [3, 8]: 0.631 µM
AC50 [3, 9]: 0.631 µM
Max Resp (signal direction of the dose response) ([5]; Method 1): Decrease
AC50 ([5]; Method 1, Hill fit, 50% of maximum activity response, read-out: AC50): 1.12 µM
Log AC50 (M) ([5]; Method 1, log10 of molar AC50 from Hill fit): -5.950 M
AC50 [5, 17]: 0.562 µM
AC50 [5, 18]: 0.562 µM
CC50 at 48 h (in vitro [4]; HepG2 cells): 13.7 µM
